In ChEMBL document CHEMBL4002601, “A triple exon-skipping luciferase reporter assay identifies a new CLK inhibitor pharmacophore” (Bioorg Med Chem Lett, 2017):

Assays:
[1] = target: Tyrosine-protein kinase JAK2 (Homo sapiens) (UniProt O60674); experiment: Inhibition of human JAK2 using KTFCGTPEYLAPEVRREPRILSEEEQEMFRDFDYIADWC as substrate in presence of [gamma-33P]ATP at 1 uM after 40 mins by scintillation counter method
[2] = target: T1, Aurora kinase A (Homo sapiens) (UniProt O14965); experiment: Inhibition of human Aurora-A using Kemptide as substrate in presence of [gamma-33P]ATP at 1 uM after 40 mins by scintillation counter method
T1 sequence (whole entry): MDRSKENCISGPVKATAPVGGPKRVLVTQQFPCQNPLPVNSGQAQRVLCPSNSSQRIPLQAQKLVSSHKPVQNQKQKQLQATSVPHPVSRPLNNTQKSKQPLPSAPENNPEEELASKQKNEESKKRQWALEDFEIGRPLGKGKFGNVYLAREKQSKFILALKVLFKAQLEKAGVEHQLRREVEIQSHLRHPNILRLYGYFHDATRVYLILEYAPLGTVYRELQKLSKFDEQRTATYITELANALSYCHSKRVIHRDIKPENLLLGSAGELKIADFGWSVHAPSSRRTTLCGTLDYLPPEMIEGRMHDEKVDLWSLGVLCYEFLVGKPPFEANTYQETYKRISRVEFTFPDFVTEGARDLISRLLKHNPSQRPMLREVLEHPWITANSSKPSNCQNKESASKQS

[3] = target: T2, Inhibitor of nuclear factor kappa-B kinase subunit beta (Homo sapiens) (UniProt O14920); experiment: Inhibition of human IKKbeta using KKKKERLLDDRHDSGLDSMKDEE as substrate in presence of [gamma-33P]ATP at 1 uM after 40 mins by scintillation counter method
T2 sequence (whole entry): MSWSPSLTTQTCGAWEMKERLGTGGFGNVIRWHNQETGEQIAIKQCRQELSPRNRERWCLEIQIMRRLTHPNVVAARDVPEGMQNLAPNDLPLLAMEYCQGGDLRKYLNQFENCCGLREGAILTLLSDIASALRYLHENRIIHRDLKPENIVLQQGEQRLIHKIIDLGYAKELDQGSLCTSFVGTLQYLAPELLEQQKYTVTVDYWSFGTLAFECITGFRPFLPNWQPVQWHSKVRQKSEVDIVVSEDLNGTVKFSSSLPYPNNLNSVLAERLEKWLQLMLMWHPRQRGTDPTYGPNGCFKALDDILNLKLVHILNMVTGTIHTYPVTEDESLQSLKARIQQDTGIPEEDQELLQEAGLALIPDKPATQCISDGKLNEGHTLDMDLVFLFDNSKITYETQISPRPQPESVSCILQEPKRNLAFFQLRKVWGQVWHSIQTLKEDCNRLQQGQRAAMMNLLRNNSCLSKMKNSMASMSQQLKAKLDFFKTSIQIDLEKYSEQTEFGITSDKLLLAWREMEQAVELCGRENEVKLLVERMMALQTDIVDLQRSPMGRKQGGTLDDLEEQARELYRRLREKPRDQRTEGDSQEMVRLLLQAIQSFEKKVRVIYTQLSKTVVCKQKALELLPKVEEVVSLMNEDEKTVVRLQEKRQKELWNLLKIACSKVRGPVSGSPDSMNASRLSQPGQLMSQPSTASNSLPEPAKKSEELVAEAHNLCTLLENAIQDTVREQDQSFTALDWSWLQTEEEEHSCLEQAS

[4] = target: PI3-kinase p110-delta/p85-alpha (Homo sapiens) (UniProt P27986+O00329); experiment: Inhibition of human PI3K p110delta/pI3K p85alpha at 1 uM using PIP2 as substrate in presence of biotinylated PIP3 and ATP and measured after 30 mins by HTRF method; assay type: protein-complex assay
[5] = target: PI3-kinase p110-alpha/p85-alpha (Homo sapiens) (UniProt P27986+P42336); experiment: Inhibition of human PI3K p110alpha/pI3K p85alpha at 1 uM using PIP2 as substrate in presence of biotinylated PIP3 and ATP and measured after 30 mins by HTRF method; assay type: protein-complex assay
[6] = target: Serine/threonine-protein kinase PLK1 (Homo sapiens) (UniProt P53350); experiment: Inhibition of human Plk1 using casein as substrate in presence of [gamma-33P]ATP at 1 uM after 40 mins by scintillation counter method
[7] = target: Serine/threonine-protein kinase B-raf (Homo sapiens) (UniProt P15056); experiment: Inhibition of human BRAF using myelin basic protein as substrate in presence of [gamma-33P]ATP at 1 uM after 40 mins by scintillation counter method
[8] = target: Dual specificity mitogen-activated protein kinase kinase 1 (Homo sapiens) (UniProt Q02750); experiment: Inhibition of human MEK1 using inactive MAPK2 as substrate in presence of [gamma-33P]ATP at 1 uM after 40 mins by scintillation counter method
[9] = target: Dual specificity tyrosine-phosphorylation-regulated kinase 1A (Homo sapiens) (UniProt Q13627); experiment: Inhibition of human DYRK1A using RRRFRPASPLRGPPK as substrate in presence of [gamma-33P]ATP at 1 uM after 40 mins by scintillation counter method
[10] = target: Macrophage colony-stimulating factor 1 receptor (Homo sapiens) (UniProt P07333); experiment: Inhibition of human Fms using KKKSPGEYVNIEFG as substrate in presence of [gamma-33P]ATP at 1 uM after 40 mins by scintillation counter method
[11] = target: SRSF protein kinase 1 (Homo sapiens) (UniProt Q96SB4); experiment: Inhibition of human SRPK1 using RSRSRSRSRSRSRSR as substrate in presence of [gamma-33P]ATP at 1 uM after 40 mins by scintillation counter method
[12] = target: T3, Dual specificity protein kinase CLK1 (Homo sapiens, UniProt P49759); experiment: Inhibition of CLK mediated SF3B1 activation in human SK-MEL-2 cells assessed as MDM2-pre mRNA exon skipping at 10 uM after 4 hrs by luciferase reporter gene assay relative to control; assay type: cell-based
Target sequence in this assay (P49759 whole entry, looked up): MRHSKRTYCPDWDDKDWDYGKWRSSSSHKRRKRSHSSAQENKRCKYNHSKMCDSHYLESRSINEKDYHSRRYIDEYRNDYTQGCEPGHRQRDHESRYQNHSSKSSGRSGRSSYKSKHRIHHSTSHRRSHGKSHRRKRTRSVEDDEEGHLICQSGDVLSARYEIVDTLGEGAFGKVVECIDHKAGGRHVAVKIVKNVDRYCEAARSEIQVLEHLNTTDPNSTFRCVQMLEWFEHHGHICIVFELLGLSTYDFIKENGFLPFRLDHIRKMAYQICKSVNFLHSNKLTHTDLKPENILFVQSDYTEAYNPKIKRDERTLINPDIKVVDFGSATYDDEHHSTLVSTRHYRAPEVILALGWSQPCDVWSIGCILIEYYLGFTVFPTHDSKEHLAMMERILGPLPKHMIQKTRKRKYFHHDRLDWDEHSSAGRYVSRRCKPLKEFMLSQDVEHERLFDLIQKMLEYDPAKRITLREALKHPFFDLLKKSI

CDK6/cyclin D3 = CDK6/cyclin D3 (Homo sapiens, UniProt Q00534); experiment: Inhibition of human CDK6/cyclinD3 using Histone H1 as substrate in presence of [gamma-33P]ATP after 40 mins by scintillation counter method; assay type: protein-complex assay
CDK4/Cyclin D3 = CDK4/Cyclin D3 (Homo sapiens, UniProt P11802); experiment: Inhibition of human CDK4/cyclinD3 using Histone H1 as substrate in presence of [gamma-33P]ATP after 40 mins by scintillation counter method; assay type: protein-complex assay
[13] = target: T3, Dual specificity protein kinase CLK1; experiment: Inhibition of CLK mediated SF3B1 activation in human SK-MEL-2 cells assessed as MDM2-pre mRNA exon skipping after 4 hrs by luciferase reporter gene assay relative to control; assay type: cell-based; settings: read-out: EC50
Target sequence in this assay (P49759 whole entry): as the sequence (P49759 whole entry, looked up) above

[14] = target: Dual specificity protein kinase CLK3 (Homo sapiens, UniProt P49761); experiment: Inhibition of human CLK3 using ERMRPRKRQGSVRRRV as substrate in presence of [gamma-33P]ATP after 40 mins by scintillation counter method
[15] = target: Cyclin-dependent kinase 1/cyclin B1 (Homo sapiens, UniProt P06493); experiment: Inhibition of human CDK1/cyclinB using Histone H1 as substrate in presence of [gamma-33P]ATP after 40 mins by scintillation counter method; assay type: protein-complex assay

Chain of Dual specificity mitogen-activated protein kinase kinase 1 (Homo sapiens) (Q02750 whole entry): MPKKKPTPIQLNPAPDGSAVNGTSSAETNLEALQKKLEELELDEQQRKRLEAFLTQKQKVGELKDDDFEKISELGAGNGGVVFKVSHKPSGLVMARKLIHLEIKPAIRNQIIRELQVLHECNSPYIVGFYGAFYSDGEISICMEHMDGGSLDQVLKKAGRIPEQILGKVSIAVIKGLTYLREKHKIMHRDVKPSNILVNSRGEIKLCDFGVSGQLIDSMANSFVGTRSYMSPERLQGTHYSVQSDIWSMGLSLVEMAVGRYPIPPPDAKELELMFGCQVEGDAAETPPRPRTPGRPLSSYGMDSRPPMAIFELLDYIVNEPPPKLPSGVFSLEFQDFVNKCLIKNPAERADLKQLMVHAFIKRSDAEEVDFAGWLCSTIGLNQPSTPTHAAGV
Chain of Tyrosine-protein kinase JAK2 (Homo sapiens) (O60674 whole entry): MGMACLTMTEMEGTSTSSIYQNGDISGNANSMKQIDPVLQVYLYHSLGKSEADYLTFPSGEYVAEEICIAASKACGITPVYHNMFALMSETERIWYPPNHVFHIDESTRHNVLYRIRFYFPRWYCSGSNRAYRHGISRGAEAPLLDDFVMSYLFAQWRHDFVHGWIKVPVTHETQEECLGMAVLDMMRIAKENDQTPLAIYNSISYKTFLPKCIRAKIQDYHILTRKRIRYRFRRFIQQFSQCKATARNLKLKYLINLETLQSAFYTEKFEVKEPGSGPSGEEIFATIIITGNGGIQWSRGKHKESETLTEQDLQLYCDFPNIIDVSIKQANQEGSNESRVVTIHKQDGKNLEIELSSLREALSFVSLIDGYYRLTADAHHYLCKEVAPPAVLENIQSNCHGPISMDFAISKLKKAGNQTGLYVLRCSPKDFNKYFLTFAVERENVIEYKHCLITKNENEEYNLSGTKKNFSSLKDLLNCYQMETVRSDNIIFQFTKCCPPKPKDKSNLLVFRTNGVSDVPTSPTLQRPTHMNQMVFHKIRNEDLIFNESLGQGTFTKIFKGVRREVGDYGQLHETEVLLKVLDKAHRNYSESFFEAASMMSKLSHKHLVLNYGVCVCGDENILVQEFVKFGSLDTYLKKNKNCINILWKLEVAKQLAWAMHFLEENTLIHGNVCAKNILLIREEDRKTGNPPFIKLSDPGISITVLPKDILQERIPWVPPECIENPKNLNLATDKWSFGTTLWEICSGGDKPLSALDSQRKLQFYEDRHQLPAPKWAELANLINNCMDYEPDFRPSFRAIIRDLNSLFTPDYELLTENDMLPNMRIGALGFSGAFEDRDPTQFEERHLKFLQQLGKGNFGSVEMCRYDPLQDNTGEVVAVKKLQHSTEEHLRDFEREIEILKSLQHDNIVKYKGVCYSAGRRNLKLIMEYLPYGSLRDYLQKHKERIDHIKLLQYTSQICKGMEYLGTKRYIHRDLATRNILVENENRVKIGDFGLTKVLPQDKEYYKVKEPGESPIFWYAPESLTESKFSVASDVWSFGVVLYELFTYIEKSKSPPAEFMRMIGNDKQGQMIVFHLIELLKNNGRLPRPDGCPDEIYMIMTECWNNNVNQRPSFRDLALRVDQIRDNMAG
Chain of Serine/threonine-protein kinase PLK1 (Homo sapiens) (P53350 whole entry): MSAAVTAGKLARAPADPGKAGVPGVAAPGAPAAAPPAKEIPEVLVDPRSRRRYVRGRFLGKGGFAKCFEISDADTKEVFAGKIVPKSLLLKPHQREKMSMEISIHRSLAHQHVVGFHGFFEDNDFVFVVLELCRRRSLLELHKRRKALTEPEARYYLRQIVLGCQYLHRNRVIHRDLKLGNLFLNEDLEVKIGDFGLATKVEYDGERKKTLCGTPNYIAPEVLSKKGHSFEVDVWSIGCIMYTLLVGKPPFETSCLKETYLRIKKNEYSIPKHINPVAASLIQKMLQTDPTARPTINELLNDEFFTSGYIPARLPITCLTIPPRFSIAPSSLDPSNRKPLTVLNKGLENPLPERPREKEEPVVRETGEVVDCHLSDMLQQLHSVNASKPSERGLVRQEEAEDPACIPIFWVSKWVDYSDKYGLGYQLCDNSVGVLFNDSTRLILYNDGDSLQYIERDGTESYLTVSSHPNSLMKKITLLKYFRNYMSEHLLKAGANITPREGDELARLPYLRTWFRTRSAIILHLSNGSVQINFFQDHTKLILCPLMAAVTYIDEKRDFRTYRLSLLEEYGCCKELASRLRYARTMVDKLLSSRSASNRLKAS
Chain of SRSF protein kinase 1 (Homo sapiens) (Q96SB4 whole entry): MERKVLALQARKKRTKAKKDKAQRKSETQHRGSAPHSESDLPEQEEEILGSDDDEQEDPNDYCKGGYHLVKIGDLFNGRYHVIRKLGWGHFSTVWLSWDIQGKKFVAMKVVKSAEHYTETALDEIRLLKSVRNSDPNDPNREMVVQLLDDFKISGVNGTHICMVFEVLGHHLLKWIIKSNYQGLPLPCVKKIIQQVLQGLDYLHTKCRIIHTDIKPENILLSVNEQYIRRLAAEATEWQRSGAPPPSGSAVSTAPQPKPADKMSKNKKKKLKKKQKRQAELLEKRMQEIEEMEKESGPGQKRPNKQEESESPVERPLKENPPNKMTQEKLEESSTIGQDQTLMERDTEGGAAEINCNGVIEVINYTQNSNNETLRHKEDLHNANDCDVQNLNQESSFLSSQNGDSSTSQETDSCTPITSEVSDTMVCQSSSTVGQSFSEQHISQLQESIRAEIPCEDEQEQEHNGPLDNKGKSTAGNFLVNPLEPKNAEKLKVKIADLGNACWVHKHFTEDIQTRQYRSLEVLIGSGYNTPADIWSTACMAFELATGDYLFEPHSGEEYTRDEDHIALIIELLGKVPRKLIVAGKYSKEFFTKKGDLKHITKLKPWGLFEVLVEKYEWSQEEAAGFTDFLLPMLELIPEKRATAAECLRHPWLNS
Chain of Serine/threonine-protein kinase B-raf (Homo sapiens) (P15056 whole entry): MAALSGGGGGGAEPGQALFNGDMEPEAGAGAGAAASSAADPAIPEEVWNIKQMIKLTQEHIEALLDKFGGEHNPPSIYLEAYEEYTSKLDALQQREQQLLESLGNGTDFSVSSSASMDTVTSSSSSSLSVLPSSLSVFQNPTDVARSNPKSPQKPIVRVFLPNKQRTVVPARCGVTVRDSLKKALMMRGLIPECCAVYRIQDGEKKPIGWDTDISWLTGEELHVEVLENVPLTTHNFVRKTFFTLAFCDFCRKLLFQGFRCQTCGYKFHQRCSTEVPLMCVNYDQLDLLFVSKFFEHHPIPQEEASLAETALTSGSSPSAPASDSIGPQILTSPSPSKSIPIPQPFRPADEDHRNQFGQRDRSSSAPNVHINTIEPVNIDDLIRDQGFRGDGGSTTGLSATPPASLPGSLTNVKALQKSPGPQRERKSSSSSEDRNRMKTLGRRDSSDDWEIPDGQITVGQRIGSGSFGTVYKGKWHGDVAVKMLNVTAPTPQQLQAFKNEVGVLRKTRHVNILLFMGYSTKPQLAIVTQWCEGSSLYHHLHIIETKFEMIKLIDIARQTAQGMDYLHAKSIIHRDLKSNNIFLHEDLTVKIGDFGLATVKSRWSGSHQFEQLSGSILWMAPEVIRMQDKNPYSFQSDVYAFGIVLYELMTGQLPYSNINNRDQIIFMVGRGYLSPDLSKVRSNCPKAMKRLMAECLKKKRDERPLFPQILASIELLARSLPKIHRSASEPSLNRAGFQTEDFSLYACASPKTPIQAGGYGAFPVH
Chain of CDK6/cyclin D3 (P30281 whole entry): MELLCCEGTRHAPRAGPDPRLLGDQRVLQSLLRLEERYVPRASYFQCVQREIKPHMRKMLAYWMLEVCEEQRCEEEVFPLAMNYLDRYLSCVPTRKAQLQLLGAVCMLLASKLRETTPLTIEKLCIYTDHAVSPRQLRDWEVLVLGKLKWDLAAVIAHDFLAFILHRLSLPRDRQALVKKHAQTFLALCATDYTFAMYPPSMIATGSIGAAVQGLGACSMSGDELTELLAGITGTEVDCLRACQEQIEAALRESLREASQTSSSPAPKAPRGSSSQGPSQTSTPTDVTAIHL
Chain of CDK6/cyclin D3 (Q00534 whole entry): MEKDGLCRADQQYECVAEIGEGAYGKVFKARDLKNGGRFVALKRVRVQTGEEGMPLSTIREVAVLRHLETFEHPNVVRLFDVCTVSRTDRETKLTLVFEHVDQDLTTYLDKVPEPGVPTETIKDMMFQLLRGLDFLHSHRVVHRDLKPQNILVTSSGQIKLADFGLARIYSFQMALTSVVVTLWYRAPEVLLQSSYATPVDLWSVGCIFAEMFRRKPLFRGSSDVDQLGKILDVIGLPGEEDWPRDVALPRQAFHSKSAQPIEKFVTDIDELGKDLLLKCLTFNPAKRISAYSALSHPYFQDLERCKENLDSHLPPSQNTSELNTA

Q: What does the source list for CC(C)n1cnc2c(Nc3cc(N)cc(Cl)c3)nc(N[C@@H]3CCCC[C@@H]3N)nc21 (racemic)?
A: inhibition [1]: 8%; inhibition [2]: 13%; inhibition [3]: -9%; inhibition [4]: 0%; inhibition [5]: 1%; inhibition [6]: 60%; inhibition [7]: 5%; inhibition [8]: 6%; inhibition [9]: 19%; inhibition [10]: 9%; inhibition [11]: 21%; fold change (FC) [12]: > 3

Q: For CC(C)n1cnc2c(Nc3cccc(Cl)c3)nc(N[C@@H]3CCCC[C@@H]3N)nc21, which inhibition [1] is on record?
A: 2%

Q: And the IC50 (CDK6/cyclin D3)?
A: > 1000 nM

Q: What about the inhibition [2] of the same compound?
A: -5%

Q: And the inhibition [3]?
A: -5%

Q: What about the IC50 (CDK4/Cyclin D3) of the same compound?
A: 541 nM

Q: What about the inhibition [4] of the same compound?
A: 3%

Q: And the inhibition [5]?
A: 5%

Q: And the EC50 [13]?
A: 4.3 µM

Q: And the inhibition [6]?
A: 9%

Q: And the inhibition [7]?
A: 21%

Q: And the inhibition [8]?
A: 8%

Q: What about the inhibition [9] of the same compound?
A: 28%

Q: And the inhibition [11]?
A: 48%

Q: What about the IC50 [14] of the same compound?
A: > 1000 nM

Q: And the fold change (FC) [12]?
A: > 3

Q: And the IC50 [15]?
A: 674 nM

Q: With CC(C)n1cnc2c(Nc3cccc(Cl)c3)nc(N[C@H]3CCCC[C@@H]3N)nc21 as the compound, how does the inhibition [1] read?
A: -6%

Q: And the IC50 (CDK6/cyclin D3)?
A: > 1000 nM

Q: What about the inhibition [2] of the same compound?
A: 4%

Q: What about the inhibition [3] of the same compound?
A: -2%

Q: What about the IC50 (CDK4/Cyclin D3) of the same compound?
A: > 1000 nM

Q: And the inhibition [4]?
A: 2%

Q: And the inhibition [5]?
A: 2%

Q: And the EC50 [13]?
A: 11.7 µM

Q: And the inhibition [6]?
A: 49%

Q: And the inhibition [7]?
A: 10%

Q: And the inhibition [8]?
A: 10%

Q: What about the inhibition [9] of the same compound?
A: 5%

Q: And the inhibition [10]?
A: -1%

Q: What about the inhibition [11] of the same compound?
A: -1%

Q: And the IC50 [14]?
A: > 1000 nM

Q: And the fold change (FC) [12]?
A: > 3

Q: And the IC50 [15]?
A: > 1000 nM
